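Each compound was tested at five concentrations against cells in 96-well plates for 48 hours. TGI: concentration producing complete growth inhibition.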
Test system: P388/ADR leukemia
Assay: NCI tumour cell line growth inhibition, 48 h

COc1cc(C2c3cc4c(cc3[C@@H](Nc3ccc([N+](=O)[O-])cc3)C3COC(=O)[C@H]23)OCO4)cc(OC)c1O (stereo partly specified)
TGI: 10.7 µM
